From US10766869B2, “Triazoles for the treatment of demyelinating dieases” (Vertex Pharmaceuticals Incorporated, priority 2015, dated 2020)
Like-named read-outs stand apart in the source and are kept apart here.

System: primary rat mixed cortical cells
Assay: In vitro myelination assay (MBP positive myelin strands, fold myelin pixels above background)
Format: cell-based
Conditions: Rattus norvegicus; for fold induction at 1 µM: 1.0 μM compound; for fold induction at 10 µM: 10.0 μM compound
Outline: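 Myelination read as total MBP-immunopositive strand pixels per well, imaged at 10× after fixation on day 14 and expressed relative to untreated wells, at 1.0 and 10.0 μM. Cells: dissociated postnatal day 1 rat cortex, cultured two weeks with compound, re-dosed at days 6 and 10.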

[1] = relative to baseline of no added compound, read-out: Fold myelin pixels above background
[2] = relative to baseline of no added compound, read-out: Fold myelin pixels above background, 1.0 μM
[3] = relative to baseline of no added compound, read-out: Fold myelin pixels above background, 10.0 μM
[4] = read-out: Fold myelin pixels above background relative to baseline of no added compound

Structure (SMILES)	fold induction at 1 µM [1]	fold induction at 10 µM [1]	fold induction at 1 µM [2]	fold induction at 10 µM [3]	other results
COCC1CCN(c2cc(C)cc(Nc3ncn(-c4cc(F)cc(F)c4)n3)n2)CC1 [Compound 619, N-[1-(3,5-difluorophenyl)-1,2,4-triazol-3-yl]-6-[4-(methoxymethyl)-1-piperidyl]-4-methyl-pyridin-2-amine]	1 to 10	1 to 10	–	–	–
Cc1cc(Nc2ncn(-c3ccc(F)c(F)c3)n2)cc(O[C@@H]2CCCN(C3COC3)C2)c1 (single isomer, unassigned) [Compound 665]	10 to 100	1 to 10	–	–	–
Cc1cc(Nc2ncn(-c3ccccc3)n2)cc(NC2CCN(C3COC3)C2)c1 (stereo not shown) [Compound 309, 5-methyl-N1-[1-(oxetan-3-yl)pyrrolidin-3-yl]-N3-(1-phenyl-1,2,4-triazol-3-yl)benzene-1,3-diamine]	–	–	1000 to 10000	≤ 1	–
Cc1cc(Nc2ncn(-c3ccccc3)n2)cc(C2(F)CCN(C3COC3)C2)c1 (stereo not shown) [Compound 18, N-[3-[3-fluoro-1-(oxetan-3-yl)pyrrolidin-3-yl]-5-methyl-phenyl]-1-phenyl-1,2,4-triazol-3-amine]	–	–	1000 to 10000	1 to 10	–
CCN1CCN(c2cc(C)cc(Nc3ncn(-c4ccccc4)n3)c2)CC1 [Compound 274, N-[3-(4-ethylpiperazin-1-yl)-5-methyl-phenyl]-1-phenyl-1,2,4-triazol-3-amine]	–	–	1000 to 10000	1 to 10	–
Cc1cc(Nc2ncn(-c3cc(F)cc(F)c3)n2)cc(N2CC(C(=O)N(C)C)C2)c1 [Compound 711, 1-[3-[[1-(3,5-difluorophenyl)-1,2,4-triazol-3-yl]amino]-5-methyl-phenyl]-N,N-dimethyl-azetidine-3-carboxamide]	10 to 100	1 to 10	–	–	–
Fc1cc(-n2cnc(Nc3cc(C(F)F)cc(N4CCN(C5COC5)CC4)c3)n2)ccn1 [Compound 189, N-[3-(difluoromethyl)-5-[4-(oxetan-3-yl)piperazin-1-yl]phenyl]-1-(2-fluoro-4-pyridyl)-1,2,4-triazol-3-amine]	–	–	100 to 1000	≤ 1	–
Cc1cc(Nc2ncn(-c3cc(F)cc(F)c3)n2)cc(N[C@H]2C[C@H](N3CCOCC3)C2)c1 (single isomer, unassigned) [Compound 649, N1-[1-(3,5-difluorophenyl)-1,2,4-triazol-3-yl]-5-methyl-N3-(3-morpholinocyclobutyl)benzene-1,3-diamine]	10 to 100	≤ 1	–	–	–
Cc1cc(Nc2ncn(-c3ccccc3)n2)cc(N2CCNC(CO)C2)c1 (stereo not shown) [Compound 59, [4-[3-methyl-5-[(1-phenyl-1,2,4-triazol-3-yl)amino]phenyl]piperazin-2-yl]methanol]	–	–	100 to 1000	100 to 1000	–
COCCN1CCN(c2cc(C)cc(Nc3ncn(-c4cc(F)cc(F)c4)n3)c2)CC1=O [Compound 1067, 4-[3-[[1-(3,5-difluorophenyl)-1,2,4-triazol-3-yl]amino]-5-methyl-phenyl]-1-(2-methoxyethyl)piperazin-2-one]	–	–	–	–	fold induction at 1 µM [4]: 1 to 10; fold induction at 10 µM [4]: ≤ 1
COc1cc(Nc2ncn(-c3cccc(C(F)(F)F)c3)n2)cc(N2CCN(C3COC3)CC2)c1 [Compound 662, N-[3-methoxy-5-[4-(oxetan-3-yl)piperazin-1-yl]phenyl]-1-[3-(trifluoromethyl)phenyl]-1,2,4-triazol-3-amine]	10 to 100	≤ 1	–	–	–
COCCN1CC(Nc2cc(C)cc(Nc3ncn(-c4cc(F)cc(F)c4)n3)c2)CC1=O (stereo not shown) [Compound 934, 4-[3-[[1-(3,5-difluorophenyl)-1,2,4-triazol-3-yl]amino]-5-methyl-anilino]-1-(2-methoxyethyl)pyrrolidin-2-one]	–	–	–	–	fold induction at 1 µM [4]: 10 to 100; fold induction at 10 µM [4]: ≤ 1
COc1cc(F)cc(-n2cnc(Nc3cc(C)cc(N4CCN(C)CC4)c3)n2)c1 [Compound 395, 1-(3-fluoro-5-methoxy-phenyl)-N-[3-methyl-5-(4-methylpiperazin-1-yl)phenyl]-1,2,4-triazol-3-amine]	10 to 100	≤ 1	–	–	–
Cc1cc(Nc2ncn(-c3cc(F)cc(F)c3)n2)cc(NC2CCCCC2N2CCOCC2)c1 (stereo not shown) [Compound 939, N3-[1-(3,5-difluorophenyl)-1,2,4-triazol-3-yl]-5-methyl-N1-(2-morpholinocyclohexyl)benzene-1,3-diamine]	–	–	–	–	fold induction at 1 µM [4]: 1 to 10; fold induction at 10 µM [4]: ≤ 1
Cc1cc(Nc2ncn(-c3cc(F)cc(F)c3)n2)cc(N2CCC(CN3CCOCC3)C2)c1 (stereo not shown) [Compound 983, 1-(3,5-difluorophenyl)-N-[3-methyl-5-[3-(morpholinomethyl)pyrrolidin-1-yl]phenyl]-1,2,4-triazol-3-amine]	–	–	–	–	fold induction at 1 µM [4]: 1 to 10; fold induction at 10 µM [4]: 1 to 10
FC(F)c1cc(Nc2ncn(-c3cccc(C(F)(F)F)c3)n2)nc(N2CCOCC2)c1 [Compound 867, 4-(difluoromethyl)-6-morpholino-N-[1-[3-(trifluoromethyl)phenyl]-1,2,4-triazol-3-yl]pyridin-2-amine]	–	–	–	–	fold induction at 1 µM [4]: 10 to 100; fold induction at 10 µM [4]: 10 to 100
Cc1cc(Nc2ncn(-c3cc(F)cc(F)c3)n2)cc(N2CC(N3CCCC3=O)C2)c1 [Compound 542, 1-[1-[3-[[1-(3,5-difluorophenyl)-1,2,4-triazol-3-yl]amino]-5-methyl-phenyl]azetidin-3-yl]pyrrolidin-2-one]	10 to 100	10 to 100	–	–	–
Cc1cc(Nc2ncn(-c3cc(F)cc(F)c3)n2)cc(N2CCOC3(CCC3)C2)c1 [Compound 543, 1-(3,5-difluorophenyl)-N-[3-methyl-5-(9-oxa-6-azaspiro[3.5]nonan-6-yl)phenyl]-1,2,4-triazol-3-amine]	1 to 10	1 to 10	–	–	–
Cc1cc(Nc2ncn(-c3cc(F)cc(F)c3)n2)nc(N2CCCC(O)C2)c1 (stereo not shown) [Compound 755, 1-[6-[[1-(3,5-difluorophenyl)-1,2,4-triazol-3-yl]amino]-4-methyl-2-pyridyl]piperidin-3-ol]	1 to 10	10 to 100	–	–	–
Cc1cc(Nc2ncn(-c3cc(F)cc(F)c3)n2)cc(N2CCN(C(C)(C)C(=O)O)CC2)c1 [Compound 509, 2-[4-[3-[[1-(3,5-difluorophenyl)-1,2,4-triazol-3-yl]amino]-5-methyl-phenyl]piperazin-1-yl]-2-methyl-propanoic acid]	100 to 1000	100 to 1000	–	–	–
Cc1cc(Nc2ncn(-c3ccccc3)n2)cc(N2CCN3C(=O)OCC3C2)c1 (stereo not shown) [Compound 227, 7-[3-methyl-5-[(1-phenyl-1,2,4-triazol-3-yl)amino]phenyl]-5,6,8,8a-tetrahydro-1H-oxazolo[3,4-a]pyrazin-3-one]	–	–	100 to 1000	10 to 100	–
CC(=O)N(C)C1CCN(c2cc(C)cc(Nc3ncn(-c4cc(F)cc(F)c4)n3)c2)C1 (stereo not shown) [Compound 500, N-[1-[3-[[1-(3,5-difluorophenyl)-1,2,4-triazol-3-yl]amino]-5-methyl-phenyl]pyrrolidin-3-yl]-N-methyl-acetamide]	100 to 1000	1 to 10	–	–	–
Cc1cc(Nc2ncn(-c3cc(F)cc(F)c3)n2)cc(C2(F)CCN(C3COC3)C2)c1 (stereo not shown) [Compound 193, 1-(3,5-difluorophenyl)-N-[3-[3-fluoro-1-(oxetan-3-yl)pyrrolidin-3-yl]-5-methyl-phenyl]-1,2,4-triazol-3-amine]	–	–	100 to 1000	100 to 1000	–
